Assay results as given in PubChem BioAssay (NCI).
Several values for one entry are separate records, joined by “and”; a condition that tells them apart may be missing. Identical values can stand only once.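 Protocol summary: plate cells (96-well), add compound at 5 concentrations, incubate 48 h, interpolate endpoints linearly. Here, GI50 denotes the concentration required for 50% inhibition of growth. TGI marks complete inhibition of growth.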

Tests used:
Test in all cases: NCI tumour cell line growth inhibition, 48 h
HCT-116 colon = test system: HCT-116 colon
LOX IMVI melanoma = test system: LOX IMVI melanoma
MALME-3M melanoma = test system: MALME-3M melanoma
OVCAR-8 ovarian = test system: OVCAR-8 ovarian
SF-268 CNS = test system: SF-268 CNS
SF-539 CNS = test system: SF-539 CNS
SK-OV-3 ovarian = test system: SK-OV-3 ovarian
SN12C renal = test system: SN12C renal
SNB-75 CNS = test system: SNB-75 CNS
SW-620 colon = test system: SW-620 colon

SMILES	GI50 (HCT-116 colon)	TGI (HCT-116 colon)	GI50 (LOX IMVI melanoma)	TGI (LOX IMVI melanoma)	GI50 (MALME-3M melanoma)	TGI (MALME-3M melanoma)	GI50 (OVCAR-8 ovarian)	TGI (OVCAR-8 ovarian)	GI50 (SF-268 CNS)	TGI (SF-268 CNS)	GI50 (SF-539 CNS)	TGI (SF-539 CNS)	GI50 (SK-OV-3 ovarian)	TGI (SK-OV-3 ovarian)	GI50 (SN12C renal)	TGI (SN12C renal)	GI50 (SNB-75 CNS)	TGI (SNB-75 CNS)	GI50 (SW-620 colon)	TGI (SW-620 colon)
O=C(NCC1CC1)c1ccc(-c2cccc(C(=O)NC3CC3)c2)cc1	> 25 µM	> 25 µM	> 25 µM	> 25 µM	> 25 µM	> 25 µM	> 25 µM	> 25 µM	> 25 µM	> 25 µM	> 25 µM	> 25 µM	> 25 µM	> 25 µM	> 25 µM	> 25 µM	> 25 µM	> 25 µM	> 25 µM	> 25 µM
N#C[Se]Cc1cc(-c2ccccc2)n(-c2ccc(S(N)(=O)=O)cc2)n1	0.383 µM	1.32 µM	0.171 µM	0.324 µM	2.2 µM	6.6 µM	1.35 µM	> 23.2 µM	0.336 µM	1.33 µM	1.38 µM	2.77 µM	2.69 µM	5.26 µM	0.527 µM	4.1 µM	0.59 µM	3.51 µM	2.18 µM	4.8 µM
Nc1ncn([C@@H]2S[C@H](CO)[C@@H](O)[C@@H]2F)c(=O)n1	0.265 µM	> 100 µM	1.16 µM	> 100 µM	5.13 µM	> 100 µM	0.409 µM	> 100 µM	4.28 µM	> 100 µM	9.8 µM	> 77.9 µM	2.94 µM	> 100 µM	0.364 µM	> 100 µM	43.4 µM	> 100 µM	1.38 µM	> 100 µM
c1cc[c]([Sn][c]2ccccc2)cc1	18.2 µM	37.7 µM	20.6 µM	42 µM	23.2 µM	47.7 µM	24 µM	58.8 µM	14.5 µM	25 µM	23.3 µM	45.5 µM	26.4 µM	90.9 µM	20 µM	42.1 µM	30.2 µM	> 100 µM	21.6 µM	45 µM
CC1CC(C)CC(C)C(O)/C(C#N)=C/C=C/CC(C2CCCC2C(=O)O)OC(=O)CC(O)C(C)C1 (centres undefined)	0.0473 µM	0.7 µM and 0.145 µM	0.0162 µM	0.0479 µM and 0.0213 µM	0.115 µM	0.312 µM and 0.106 µM	0.0495 µM	0.472 µM and 0.344 µM	0.0307 µM	0.311 µM and 0.117 µM	0.0051 µM	0.0213 µM and 0.0146 µM	0.0369 µM	0.217 µM and 0.0917 µM	0.0342 µM	0.342 µM and 0.727 µM	0.0267 µM	0.0853 µM and 0.11 µM	0.0834 µM	0.725 µM and 1.34 µM
c1ccc(-c2nc(-c3ccccn3)nc(-c3ccccn3)n2)nc1	19.4 µM	78.6 µM	33.5 µM	> 100 µM	35.3 µM	> 100 µM	21.3 µM	> 100 µM	32.4 µM	> 100 µM	40.3 µM	> 100 µM	54.2 µM	> 100 µM	56.6 µM	> 100 µM	> 100 µM	> 100 µM	28 µM	> 100 µM
CCCN1C(=O)NC(=O)C(CC)(N2C(=O)c3c(F)c(F)c(F)c(F)c3C2=O)C1=O (centres undefined)	1.48 µM	4.93 µM	1.66 µM	4.34 µM	2.06 µM	5.31 µM	2.54 µM	7.81 µM	2 µM	5.07 µM	1.92 µM	4.14 µM	3.96 µM	13.2 µM	2.16 µM	6.14 µM	1.81 µM	4.52 µM	1.3 µM	2.82 µM
CC1=C([Se]CC(OC(=O)CC[Se]c2ccccc2)C(=O)NC(C)(C)C)C(=O)c2ccccc2C1=O (centres undefined)	1.47 µM	2.86 µM	1.94 µM	4.7 µM	2.1 µM	4.46 µM	1.77 µM	3.27 µM	1.76 µM	3.29 µM	1.75 µM	3.15 µM	1.45 µM	2.81 µM	1.67 µM	3.13 µM	1.47 µM	2.82 µM	1.91 µM	3.88 µM
COc1ccc(C2=Nn3c(nnc3-c3cc(Cl)cc(Cl)c3Cl)SC2)cc1	0.393 µM	> 100 µM	0.568 µM	> 100 µM	0.44 µM	> 50.5 µM	0.862 µM	> 40.7 µM	1.3 µM	> 100 µM	0.225 µM	0.741 µM	0.522 µM	> 100 µM	1.54 µM	> 100 µM	0.335 µM		0.381 µM	> 100 µM
O=C1CC(CC(=O)C2CCCCC2=O)C(=O)N1 (centres undefined)		> 100 µM		> 100 µM		> 100 µM		> 100 µM		> 100 µM		> 100 µM		> 100 µM		> 100 µM		> 100 µM		> 100 µM
Cn1ccnc1CCc1c(Cl)cccc1Cl		> 100 µM		> 100 µM		> 100 µM		> 100 µM		> 100 µM		> 100 µM		> 100 µM		> 100 µM		> 100 µM		> 100 µM
O=C(N/N=C/c1ccccc1O)N/N=C/c1ccccc1O		> 100 µM		> 100 µM		> 100 µM		> 100 µM		> 100 µM		> 100 µM		> 100 µM		> 100 µM		> 100 µM		> 100 µM
COc1cc(C)ccc1C(=O)c1ccc(C)cc1OC	3.25 µM	> 100 µM	7.88 µM	> 100 µM	4.67 µM	> 100 µM	4.89 µM	> 100 µM	7.92 µM	> 100 µM	2.66 µM	20.6 µM	2.66 µM	14.1 µM	15.7 µM	> 100 µM	3.25 µM	> 100 µM	1.41 µM	> 100 µM
CC(=O)c1c(O)c(C)c(O)c(Cc2c(O)c3c(c(C(=O)/C=C/c4ccccc4)c2O)OC(C)(C)C=C3)c1O		10.2 µM		14.3 µM		12.6 µM		23.7 µM		85.7 µM		26.5 µM		15.1 µM		9.09 µM		7.93 µM		14.8 µM
Cn1ncc(-c2ccc3c(=O)[nH]nc(CN)c3c2)c1-c1c(F)c(Cl)cc(OC2CC2)c1C#N	13.1 µM and 12.8 µM	29.1 µM and 27.5 µM	12.5 µM and 12.9 µM	25.6 µM and 26.2 µM	14.2 µM and 12.2 µM	28.8 µM and 25.5 µM	13.9 µM and 13.7 µM	27.4 µM and 27.1 µM	14.1 µM and 12.8 µM	28.8 µM and 26.7 µM	14.4 µM and 13.1 µM	28 µM and 26.7 µM	20.4 µM and 17.4 µM	40.5 µM and 33.3 µM	13.5 µM and 11.8 µM	28.7 µM and 25.3 µM	11.1 µM and 5.4 µM	23.7 µM and 20.7 µM	13.8 µM and 12.6 µM	29.4 µM and 27.3 µM
Cc1c2cnccc2c(C)c2c1c1cc(C#N)ccc1n2C	0.0434 µM	0.593 µM	0.115 µM	0.615 µM	0.195 µM	0.548 µM	0.103 µM	1.96 µM	0.209 µM	1.59 µM	0.254 µM	1.14 µM	0.245 µM	0.92 µM	0.149 µM	1.14 µM	0.179 µM	0.966 µM	0.0695 µM	1.17 µM
O=C(COc1ccccc1Cl)N1N=C(c2ccc(Cl)cc2)CC1(O)c1ccccc1 (centres undefined)		> 100 µM		> 100 µM		> 100 µM		> 100 µM		> 100 µM		> 100 µM		> 100 µM		> 100 µM		> 100 µM		> 100 µM
CC(=O)Nc1ccc(-c2cc(C(=O)O)c3cc4ccccc4cc3n2)cc1		> 100 µM		> 100 µM		> 100 µM		> 100 µM		> 100 µM		> 100 µM		> 100 µM		> 100 µM		> 100 µM		> 100 µM
CN1N=CSC12C(=O)N(c1ccccc1)C(=O)N2c1ccccc1 (centres undefined)		> 100 µM		> 100 µM		> 100 µM		> 100 µM		> 100 µM		> 100 µM		> 100 µM		> 100 µM		> 100 µM		> 100 µM
Cc1ccc2cnc(N)c(C#Cc3cc(C(=O)Nc4ccc(CN5CCN(C)CC5)c(C(F)(F)F)c4)cnc3C)c2c1	0.513 µM	1.39 µM	0.183 µM	0.808 µM	0.146 µM	0.631 µM	1.11 µM	3.85 µM	0.559 µM	1.27 µM	0.664 µM	1.32 µM	1.61 µM	4.19 µM	0.317 µM	1.06 µM	0.756 µM	1.61 µM	0.344 µM	1.07 µM
N#CC(N)=Nc1ccccc1		> 100 µM		> 100 µM		> 100 µM		> 100 µM		> 100 µM		> 100 µM		> 100 µM		> 100 µM		> 100 µM		> 100 µM
C/C(=N/O)c1cccc(Nc2cc(-n3nnc4ccccc43)nc3ccccc23)c1	10.3 µM	26 µM	24.2 µM	93 µM	16.8 µM	48 µM	13.5 µM	51.8 µM	17.2 µM	> 64 µM	1.62 µM	5.88 µM	30.5 µM	> 74.2 µM	8.96 µM	30.5 µM	35.6 µM	> 100 µM	21.5 µM	57 µM
